For assay [1], the target named is T1, SARS-CoV-2 PLpro (nsp3 1564–1878) (Severe acute respiratory syndrome coronavirus 2, UniProt P0DTD1). Nature of the assay: biochemical. More on the design: FRET-quenched peptide (Pro3) cleavage by PLpro, 10 min pre-incubation, slope over 20 min, normalised to no-compound control. The conditions noted are these: read-out: % of control remaining.
The target in assay [2] is T1, SARS-CoV-2 PLpro (nsp3 1564–1878). Nature of the assay: biochemical. More on the design: FRET-quenched peptide (Pro3) cleavage by PLpro, 10 min pre-incubation, slope over 20 min, normalised to no-compound control. The conditions noted are these: read-out: % of control remaining. The source holds these as a separate data set.

Counter-ions that a name gives are not always drawn. Like-named read-outs stand apart in the source and are kept apart here. Where a SMILES comes first, the peptide text is derived from it. [ ]: non-standard residue; d: D form. Dolaproine = CO[C@@H]([C@@H]1CCCN1)[C@@H](C)C(=O)O; Dil = CC[C@H](C)[C@H](NC)[C@@H](CC(=O)O)OC; NMeV = CN[C@H](C(=O)O)C(C)C

On to `Cc1sc(C)c(C(=O)NC2(c3ccc(C(=O)O)cc3)CC2)c1Cc1ccc(C(F)(F)F)cc1` [MK-2894], for which the remaining activity at 1.25 µM in assay [1] (Well no.=7101, low concentration screen) is 94.3%. In assay [2] (Well no.=7101, high concentration screen), the remaining activity at 3.75 µM is 90.7%.
Consider `O=C(CN1C(=O)C2(CCCC2)NC[C@H]1c1cc(F)cc(F)c1)Nc1ccc2c(c1)C[C@@]1(C2)C(=O)Nc2ncccc21` [MK-3207 (Hydrochloride)], for which the remaining activity at 1.25 µM in assay [1] (Well no.=6950, low concentration screen) came out at 93.4%. Besides, the remaining activity at 3.75 µM in assay [2] (Well no.=6950, high concentration screen) is 93.6%.
`COc1ccc(CNC(=O)c2cc(-c3cncc(C)c3)ncc2-c2nccs2)nc1OC` [MK-3697]: the remaining activity at 1.25 µM in assay [1] (Well no.=7867, low concentration screen) stood at 107%. For the same compound, in assay [2] (Well no.=7867, high concentration screen), the remaining activity at 3.75 µM stood at 95.1%.
On to `O=C(O)[C@]1(Cc2cccc(Nc3nccs3)n2)CC[C@@H](Oc2cccc(Cl)c2F)CC1` [MK-5108 (VX-689)], for which the remaining activity at 1.25 µM in assay [1] (Well no.=4733, low concentration screen) worked out at 101%. Moreover, the remaining activity at 3.75 µM in assay [2] (Well no.=4733, high concentration screen) is 97.2%.
Regarding `CC(C)(Cc1nc(-c2ccc(O)cn2)no1)C(=O)NC1=C(C(=O)O)CCCC1` [MK-6892], the remaining activity at 1.25 µM in assay [1] (Well no.=7953, low concentration screen) worked out at 101%. In assay [2] (Well no.=7953, high concentration screen), the remaining activity at 3.75 µM turned out to be 100%.
As to `O=C(O)Cn1nnc(-c2cc(N3CCC(Oc4cc(F)ccc4Br)CC3)no2)n1` [MK-8245], the remaining activity at 1.25 µM in assay [1] (Well no.=4842, low concentration screen) amounted to 90.5%. The remaining activity at 3.75 µM in assay [2] (Well no.=4842, high concentration screen) was 85.1%.
For the compound `O=C(N[C@H]1CN2CCC1CC2)c1c[nH]c2ccsc2c1=O` [MKC-733], the remaining activity at 1.25 µM in assay [1] (Well no.=5899, low concentration screen) came to 105%. For the same compound, in assay [2] (Well no.=5899, high concentration screen), the remaining activity at 3.75 µM stood at 108%.
Turning to `Cc1ccc(S(=O)(=O)n2c(N)nc3ccccc32)cc1` [ML130], the remaining activity at 1.25 µM in assay [1] (Well no.=4829, low concentration screen) worked out at 101%. Further, the remaining activity at 3.75 µM in assay [2] (Well no.=4829, high concentration screen) amounted to 101%.
Turning to `COc1ccc(CNCc2cccc3ccccc23)cc1` [ML133 HCl], in assay [1] (Well no.=4793, low concentration screen), the remaining activity at 1.25 µM was 97.9%. In assay [2] (Well no.=4793, high concentration screen), the remaining activity at 3.75 µM came to 96.1%.
As to `Cc1cc(NC(=O)CS(=O)(=O)c2cn(Cc3cc(Br)ccc3F)c3ccccc23)no1` [ML169], the remaining activity at 1.25 µM in assay [1] (Well no.=5507, low concentration screen) is 99%. Further, in assay [2] (Well no.=5507, high concentration screen), the remaining activity at 3.75 µM turned out to be 97.5%.
For the compound `COC(=O)c1cnn(-c2ccc(F)cc2F)c1/C=N/NC(=S)NC(C)(C)C` [ML194], the remaining activity at 1.25 µM in assay [1] (Well no.=5766, low concentration screen) worked out at 99.4%. The remaining activity at 3.75 µM in assay [2] (Well no.=5766, high concentration screen) turned out to be 95.8%.
`CCN1CCN(C(c2ccc(C(F)(F)F)cc2)c2ccc3cccnc3c2O)CC1` (centres unmarked) [ML311]: the remaining activity at 1.25 µM in assay [1] (Well no.=6532, low concentration screen) amounted to 99.7%. Also, the remaining activity at 3.75 µM in assay [2] (Well no.=6532, high concentration screen) amounted to 99.6%.
For the compound `COc1cc2nc(C3CC3)nc(N3CCN(c4ccccc4OC)CC3)c2cc1OC` [ML314], the remaining activity at 1.25 µM in assay [1] (Well no.=7913, low concentration screen) worked out at 97.1%. Besides, the remaining activity at 3.75 µM in assay [2] (Well no.=7913, high concentration screen) was determined as 98.2%.
`O=C(NCCCNC(=O)c1ccc[nH]c1=O)c1cc(-c2ccccc2)on1` [ML327]: the remaining activity at 1.25 µM in assay [1] (Well no.=7164, low concentration screen) came out at 101%. Moreover, the remaining activity at 3.75 µM in assay [2] (Well no.=7164, high concentration screen) was determined as 93.7%.
Consider `NS(=O)(=O)c1ccc(NC2=CC(=O)c3ccccc3C2=O)cc1` [ML329], for which the remaining activity at 1.25 µM in assay [1] (Well no.=8264, low concentration screen) was determined as 91.6%. In addition, the remaining activity at 3.75 µM in assay [2] (Well no.=8264, high concentration screen) amounted to 90.3%.
As to `COc1cccc(CNc2ccc(S(=O)(=O)Nc3nc4ccccc4s3)cc2)c1O` [ML355], the remaining activity at 1.25 µM in assay [1] (Well no.=7648, low concentration screen) worked out at 97.9%. The remaining activity at 3.75 µM in assay [2] (Well no.=7648, high concentration screen) turned out to be 96.7%.
`COc1cc(N)c(Cl)cc1C(=O)OCCN1CCCCC1` [ML 10302]: the remaining activity at 1.25 µM in assay [1] (Well no.=5486, low concentration screen) worked out at 98.8%. The remaining activity at 3.75 µM in assay [2] (Well no.=5486, high concentration screen) is 100%.
`O=S(=O)(c1cccc2c(I)cccc12)N1CCCNCC1` [ML-7, Hydrochloride]: the remaining activity at 1.25 µM in assay [1] (Well no.=2491, low concentration screen) was found to be 103%. Further, in assay [2] (Well no.=2491, high concentration screen), the remaining activity at 3.75 µM came to 103%.
For `Cc1ccc(C)c(OCCn2cc(C(=O)O)c3ccccc32)c1` [ML-098], the remaining activity at 1.25 µM in assay [1] was determined as 98.4%. The remaining activity at 3.75 µM in assay [2] worked out at 97.6%.
For `CCCC(=O)Nc1cccc(NC(=O)c2ccccc2Br)c1` [ML-161], the remaining activity at 1.25 µM in assay [1] (Well no.=4845, low concentration screen) was 95%. Further, the remaining activity at 3.75 µM in assay [2] (Well no.=4845, high concentration screen) stood at 93%.
Take `CC(C)C[C@H](NC(=O)CNC(=O)c1cc(Cl)ccc1Cl)B(O)O` [MLN2238]: the remaining activity at 1.25 µM in assay [1] (Well no.=4808, low concentration screen) worked out at 96.1%. Also, the remaining activity at 3.75 µM in assay [2] (Well no.=4808, high concentration screen) amounted to 97.1%.
Regarding `O=C(O)c1ccc(Nc2ncc3c(n2)-c2ccc(Cl)cc2C(c2c(F)cccc2F)=NC3)cc1` [MLN8054], the remaining activity at 1.25 µM in assay [1] (Well no.=4659, low concentration screen) was found to be 105%. Moreover, the remaining activity at 3.75 µM in assay [2] (Well no.=4659, high concentration screen) worked out at 98.1%.
Take `CC(C)C[C@H](NC(=O)CNC(=O)c1cc(Cl)ccc1Cl)B1OC(=O)C(CC(=O)O)(CC(=O)O)O1` [MLN9708]: the remaining activity at 1.25 µM in assay [1] (Well no.=4810, low concentration screen) amounted to 101%. The remaining activity at 3.75 µM in assay [2] (Well no.=4810, high concentration screen) worked out at 103%.
`CC[C@H](C)[C@@H]([C@@H](CC(=O)N1CCC[C@H]1[C@H](OC)[C@@H](C)C(=O)N[C@@H](Cc1ccccc1)C(=O)O)OC)N(C)C(=O)[C@@H](NC(=O)[C@@H](NC)C(C)C)C(C)C` [MMAF (Hydrochloride)] (H-[NMeV]V[Dil][Dolaproine]F-OH): in assay [1] (Well no.=7650, low concentration screen), the remaining activity at 1.25 µM worked out at 89.6%. For the same compound, the remaining activity at 3.75 µM in assay [2] (Well no.=7650, high concentration screen) was determined as 89.5%.
As for `CC[C@H](C)[C@@H]([C@@H](CC(=O)N1CCC[C@H]1[C@H](OC)[C@@H](C)C(=O)N[C@@H](Cc1ccccc1)C(=O)OC)OC)N(C)C(=O)[C@@H](NC(=O)[C@@H](NC)C(C)C)C(C)C` [MMAF-OMe] (H-[NMeV]V[Dil][Dolaproine]F-OMe), the remaining activity at 1.25 µM in assay [1] (Well no.=7600, low concentration screen) worked out at 101%. In addition, the remaining activity at 3.75 µM in assay [2] (Well no.=7600, high concentration screen) turned out to be 97.1%.
Turning to `O/N=C/c1cc[n+](C[n+]2ccc(/C=N/O)cc2)cc1` [MMB-4], in assay [1], the remaining activity at 1.25 µM was determined as 95.4%. The remaining activity at 3.75 µM in assay [2] is 93.7%.
For the compound `S=C(NCc1ccc2c(c1)OCO2)N1CCN(c2ncnc3c2oc2ccccc23)CC1` [MP-470], the remaining activity at 1.25 µM in assay [1] (Well no.=2745, low concentration screen) was 103%. In addition, in assay [2] (Well no.=2745, high concentration screen), the remaining activity at 3.75 µM turned out to be 104%.
Take `Cc1cccc(C#Cc2ccccc2)n1` [MPEP (Hydrochloride)]: in assay [1] (Well no.=8541, low concentration screen), the remaining activity at 1.25 µM stood at 96.2%. Also, the remaining activity at 3.75 µM in assay [2] (Well no.=8541, high concentration screen) was 90.4%.
As for `CC(C)N(CCCCOCC(=O)O)c1cnc(-c2ccccc2)c(-c2ccccc2)n1` [MRE-269], the remaining activity at 1.25 µM in assay [1] (Well no.=7719, low concentration screen) came out at 107%. For the same compound, the remaining activity at 3.75 µM in assay [2] (Well no.=7719, high concentration screen) amounted to 105%.
In the case of `CCCOC(=O)c1c(-c2ccccc2)nc(CC)c(C(=O)SCC)c1CCC` [MRS 1523], the remaining activity at 1.25 µM in assay [1] (Well no.=1064, low concentration screen) is 95.3%. In addition, the remaining activity at 3.75 µM in assay [2] (Well no.=1064, high concentration screen) was found to be 94.2%.
Regarding `CCCn1c(=O)c2[nH]c(-c3ccc(OCC(=O)Nc4ccc(C#N)cc4)cc3)nc2n(CCC)c1=O` [MRS 1754], the remaining activity at 1.25 µM in assay [1] (Well no.=788, low concentration screen) came to 97.4%; in assay [1] (Well no.=8407, low concentration screen) it was 101%. Further, the remaining activity at 3.75 µM was found to be 97.6% in assay [2] (Well no.=788, high concentration screen) and 95.8% in assay [2] (Well no.=8407, high concentration screen).
Turning to `C#CCN1C(C)=C(C(=O)OC)C(c2cccc([N+](=O)[O-])c2)C(C(=O)OCC)=C1C` (centres unmarked) [MRS 1845], in assay [1] (Well no.=968, low concentration screen), the remaining activity at 1.25 µM was 95.8%. In addition, the remaining activity at 3.75 µM in assay [2] (Well no.=968, high concentration screen) stood at 96.5%.
Regarding `Cc1nc(N=Nc2ccc(C(=O)O)cc2)c(COP(=O)(O)O)c(C=O)c1O` [MRS 2159], the remaining activity at 1.25 µM in assay [1] (Well no.=1030, low concentration screen) came to 102%. In addition, in assay [2] (Well no.=1030, high concentration screen), the remaining activity at 3.75 µM worked out at 101%.

Source of the values: PMC8286840, “Identifying SARS-CoV-2 antiviral compounds by screening for small molecule inhibitors of Nsp3 papain-like protease” (Biochemical Journal, 2021).
